Data: US20240190889A1, “NEW CYCLOPENTA-THIENO-DIAZEPINE DERIVATIVES AS GABA A GAMMA1 POSITIVE ALLOSTERIC MODULATORS” (Hoffmann-La Roche Inc., priority 2021, published 2024)
Like-named read-outs stand apart in the source and are kept apart here.

How the values were obtained:
[1] = biological target: human GABAA α5β2γ1 receptor (Homo sapiens (Human), UniProt P31644+Q8N1C3); test: Radioligand binding assay, competition for [3H]RO7239181, γ1-containing GABAA subtypes; details: membranes from HEK293F cells, mean of two determinations
Method: (§1) Membrane Preparation and Binding Assay for γ1-containing GABAA Subtypes
The affinity of compounds at GABAA γ1 subunit-containing receptors was measured by competition for [^3H]RO7239181 (67.3 Ci/mmol: Roche) binding to membranes from HEK293F cells (ThermoFisher R79007) expressing human (transiently transfected) receptors of composition α5β2γ1, α2β2γ1, α1β2γ1. For better protein expression of the α2 subunit-containing receptors, the 28 amino acid long signal peptide (Metl to Ala28) of the human GABAA α2 subunit was substituted by the 31 amino acid long signal peptide (Met1 to Ser31) of human GABAA α5 subunit.
(§2) Harvested pellets from HEK293F cells expressing the different GABAA receptor subtypes were resuspended in Mannitol Buffer pH 7.2-7.4 (Mannitol 0.29 M, Tricthylamine 10 mM. Acetic acid 10 mM. EDTA 1 mM plus protease inhibitors (20 tablets Complete. Roche Diagnostics Cat. No. 05 056 489 001 per liter)), washed two times and then resuspended at 1:10 to 1:15 dilution in the same buffer. Cell disruption was performed by stirring the suspension in a Parr vessel #4637 at 435 psi for 15 minutes, and then the suspensions were centrifuged at 1000×g for 15 minutes at 4° C. (Beckman Avanti J-HC: rotor JS-4.2). The supernatant (S1) was transferred in a 21 Schott flask and the pellet (P1) was resuspended with Mannitol Buffer up to 175 ml. The resuspended pellet was transferred into a 250 ml Corning centrifugal beaker and centrifuged at 1500 ×g for 10 minutes at 4° C. (Beckman Avanti J-HC: rotor JS-4.2). The supernatant (S1) was then transferred in the 21 Schott flask and the pellet was discarded. The supernatants (S1) were centrifuged in 500ml Beckman polypropylene centrifugal beaker at 15 000×g for 30 minutes at 4° C. (Beckman Avanti J-20 XP; rotor JLA-10.500). The pellet (P2) was resuspended with Mannitol Buffer 1:1 and frozen at −80° C. The supernatant (S2) was centrifuged in 100 ml Beckman polypropylene centrifugal tubes at 48000×g for 50 minutes at 4 °C (Beckman Avanti J-20 XP: rotor JA-18). The supernatant (S3) was discarded and the pellet (P3) was resuspended with 1:1 Mannitol Buffer. The P2 and P3 protein concentration was determined with the BIORAD Standard assay method with bovine serum albumin as standard and measured on the NANO-Drop 1000. The membrane suspension was aliquots (500μl per tube) and stored at −80° C. until required.
(§3) Membrane homogenates were resuspended and polytronised (Polytron PT1200E Kinematica AG) in Potassium Phosphate 10 mM, KCl 100 mM binding buffer at pH 7.4 to a final assay concentration determined with a previous experiment.
(§4) Radioligand binding assays were carried out in a volume of 200 μL (96-well plates) which contained 100 μL of cell membranes. [^3H]RO7239181 at a concentration of 1.5 nM (α5β2γ1) or 20-30 nM (α1β2γ1, α2β2γ1) and the test compound in the range of [0.3-10000]33 10^−9 M. Nonspecific binding was defined by 10×10^6 (α5β2γ1) and 30×10^6 M RO7239181 and typically represented less than 5% (α5β2γ1) and less than 20% (α1β2γ1, α2β2γ1) of the total binding. Assays were incubated to equilibrium for 1 hour at 4° C. and then, membranes were filtered onto unifilter (96-well white microplate with bonded GF/C filters preincubated 20-50 minutes in 0.3% Polyethylenimine) with a Filtermate 196 harvester (Packard BioScience) and washed 4 times with cold Potassium Phosphate 10 mM pH 7.4. KCl 100 mM binding buffer. After anhydrousing, filter-retained radioactivity was detected by liquid scintillation counting. Ki values were calculated using Excel-Fit (Microsoft) and are the means of two determinations.
Representative test results, obtained by the above described assay measuring binding affinity to HEK293 cells expressing human (h) receptors, are shown in the Table 1.

[2] = biological target: human GABAA α2β2γ1 receptor (Homo sapiens (Human), UniProt P47869+Q8N1C3); test: as above
Method: as §1
The affinity of compounds at GABAA γ1 subunit-containing receptors was measured by competition for [^3H]RO7239181 (67.3 Ci/mmol: Roche) binding to membranes from HEK293F cells (ThermoFisher R79007) expressing human (transiently transfected) receptors of composition α5β2γ1, α2β2γ1, α1β2γ1.
as §2, §3
as §4, with “[^3H]RO7239181 at a concentration of 1.5 nM (α5β2γ1) or 20-30 nM (α1β2γ1, α2β2γ1) and the test compound in the range of [0.3-10000]33 10^−9 M. Nonspecific binding was defined by 10×10^6 (α5β2γ1) and 30×10^6 M RO7239181 and typically represented less than 5% (α5β2γ1) and less than 20% (α1β2γ1, α2β2γ1) of the total binding.” left out

[3] = biological target: human GABAA α1β3γ2 receptor (Homo sapiens (Human), UniProt P14867+P18507); test: Radioligand binding assay, competition for [3H]Flumazenil, γ2-containing GABAA subtypes; details: for γ2/γ1 Selectivity Ratio: Ki α1β3γ2 (nM)/Ki α2β2γ1 (nM); for LogSel: Log[Ki α1β3γ2 (nM)/Ki α2β2γ1 (nM)]
Method: Membrane Preparation and Binding Assay for γ2-containing GABAA Subtypes
The affinity of compounds at GABAA γ2 subunit-containing receptors was measured by competition for [^3H]Flumazenil (81.1 Ci/mmol; Roche) binding to HEK293F cells expressing human (transiently transfected) receptors of composition α1β3γ2.
Harvested pellets from HEK293F cells expressing the different GABAA γ2 receptor subtypes were resuspended in Mannitol Buffer pH 7,2-7,4 and processed as described above for the cells expressing the GABAA γ1 subunit-containing receptors.
Assays were incubated to equilibrium for 1 hour at 4° C, and harvested onto GF/C uni-filters (Packard) by filtration using a Packard harvester and washing with ice-cold wash buffer (50 mM Tris; pH 7.5). After anhydrousing, filter-retained radioactivity was detected by liquid scintillation counting. Ki values were calculated using Excel-Fit (Microsoft) and are the means of two determinations.

[4] = read-out: Ki h-GABAA α2β2γ1, membranes from HEK293F cells, [3H]RO7239181 20-30 nM, mean of two determinations
[5] = HEK293F cell membranes, [3H]Flumazenil 1 nM, mean of two determinations, read-out: Ki h-GABAA α1β3γ2

| Structure (SMILES) | Ki [1] | Ki [2] | Ki [2, 4] | Ki [3, 5] | γ2/γ1 Selectivity Ratio [3] | LogSel [3] | Ki [3] |
| --- | --- | --- | --- | --- | --- | --- | --- |
| Cc1nnc2n1-c1sc3c(c1C(c1c(F)cccc1Cl)=NC2)C[C@@H](C#N)C3 [Example 1, (13R)-9-(2-chloro-6-fluoro-phenyl)-3-methyl-16-thia-2,4,5,8-tetrazatetracyclo [8.6.0.02,6.011,15]hexadeca-1(10),3,5,8,11(15)-pentaene-13-carbonitrile] | 8.8 nM | 25.4 nM | 25.4 nM | 1250 nM | 49.0 | 1.69 | – |
| Cc1nnc2n1-c1sc3c(c1C(c1c(F)cccc1F)=NC2)C[C@@H](C#N)C3 [Example 2, (13R)-9-(2,6-difluorophenyl)-3-methyl-16-thia-2,4,5,8-tetrazatetracyclo [8.6.0.02,6.011,15]hexadeca-1(10),3,5,8,11(15)-pentaene-13-carbonitrile] | 16.3 nM | 42.7 nM | 42.7 nM | 2160 nM | 50.7 | 1.71 | – |
| Cc1nnc2n1-c1sc3c(c1C(c1c(F)cccc1F)=NC2)C[C@@H](C(F)F)C3 [Example 3, (13R)-13-(difluoromethyl)-9-(2,6-difluorophenyl)-3-methyl-16-thia-2,4,5,8-tetrazatetracyclo [8.6.0.02,6.011,15]hexadeca-1(10),3,5,8,11(15)-pentaene] | 1.8 nM | 2.9 nM | 2.9 nM | – | 88.4 | 1.95 | 257 nM |
| Cc1nnc2n1-c1sc3c(c1C(c1c(F)cccc1Cl)=NC2)C[C@@H](C(F)F)C3 [Example 4, (13R)-9-(2-chloro-6-fluoro-phenyl)-13-(difluoromethyl)-3-methyl-16-thia-2,4,5,8-tetrazatetracyclo [8.6.0.02,6.011,15]hexadeca-1(10),3,5,8,11(15)-pentaene] | 1.2 nM | 4.6 nM | 4.6 nM | – | 74.8 | 1.87 | 343 nM |
| Cc1nnc2n1-c1sc3c(c1C(c1c(F)cccc1F)=N[C@H]2C)C[C@@H](C(F)F)C3 [Example 5, (7S,13R)-13-(difluoromethyl)-9-(2,6-difluorophenyl)-3,7-dimethyl-16-thia-2,4,5,8-tetrazatetracyclo [8.6.0.02,6.011,15]hexadeca-1(10),3,5,8,11(15)-pentaene] | 1.2 nM | 3.4 nM | 3.4 nM | – | 66.5 | 1.82 | 228 nM |
| Fc1cccc(Cl)c1C1=NCc2nnc(C3CC3)n2-c2sc3c(c21)C[C@@H](C(F)F)C3 [Example 6, (13R)-9-(2-chloro-6-fluoro-phenyl)-3-cyclopropyl-13-(difluoromethyl)-16-thia-2,4,5,8-tetrazatetracyclo [8.6.0.02,6.011,15]hexadeca-1(10),3,5,8,11(15)-pentaene] | 3.4 nM | 6.6 nM | 6.6 nM | – | 97.7 | 1.99 | 647 nM |
| Fc1cccc(F)c1C1=NCc2nnc(C3CC3)n2-c2sc3c(c21)C[C@@H](C(F)F)C3 [Example 7, (13R)-3-cyclopropyl-13-(difluoromethyl)-9-(2,6-difluorophenyl)-16-thia-2,4,5,8-tetrazatetracyclo [8.6.0.02,6.011,15]hexadeca-1(10),3,5,8,11(15)-pentaene] | 2.1 nM | 6.4 nM | 6.4 nM | – | 47.3 | 1.67 | 304 nM |
| C[C@@H]1N=C(c2c(F)cccc2F)c2c(sc3c2C[C@@H](C(F)F)C3)-n2c(C3CC3)nnc21 [Example 8, (7S,13R)-3-cyclopropyl-13-(difluoromethyl)-9-(2,6-difluorophenyl)-7-methyl-16-thia-2,4,5,8-tetrazatetracyclo [8.6.0.02,6.011,15]hexadeca-1(10),3,5,8,11(15)-pentaene] | 1.9 nM | 4.6 nM | 4.6 nM | – | 99.2 | 2.00 | 455 nM |
| Cc1nnc2n1-c1sc3c(c1C(c1c(F)cccc1Cl)=N[C@H]2C)C[C@@H](C(F)F)C3 [Example 9, (7S,13R)-9-(2-chloro-6-fluoro-phenyl)-13-(difluoromethyl)-3,7-dimethyl-16-thia-2,4,5,8-tetrazatetracyclo [8.6.0.02,6.011,15]hexadeca-1(10),3,5,8,11(15)-pentaene] | 1.6 nM | 3.6 nM | 3.6 nM | – | 101.3 | 2.01 | 366 nM |
| Fc1cccc(F)c1C1=NCc2nnc(-c3cccnn3)n2-c2sc3c(c21)C[C@@H](C(F)F)C3 [Example 10, (13R)-13-(difluoromethyl)-9-(2,6-difluorophenyl)-3-pyridazin-3-yl-16-thia-2,4,5,8-tetrazatetracyclo [8.6.0.02,6.011,15]hexadeca-1(10),3,5,8,11(15)-pentaene] | 3 nM | 3 nM | 3 nM | – | 1090.8 | 3.04 | 3220 nM |
| C[C@@H]1N=C(c2c(F)cccc2Cl)c2c(sc3c2C[C@@H](C(F)F)C3)-n2c(C3CC3)nnc21 [Example 11, (7S,13R)-9-(2-chloro-6-fluoro-phenyl)-3-cyclopropyl-13-(difluoromethyl)-7-methyl-16-thia-2,4,5,8-tetrazatetracyclo [8.6.0.02,6.011,15]hexadeca-1(10),3,5,8,11(15)-pentaene] | 3.4 nM | 10.3 nM | 10.3 nM | – | 108.6 | 2.04 | 1120 nM |
